# Data from ChEMBL document CHEMBL5291721, “A preclinical secondary pharmacology resource illuminates target-adverse drug reaction associations of marketed drugs” (Nat Commun, 2023).
# Columns and labels:
# [1] = biological target: T1, Adenosine receptor A3 (Homo sapiens, UniProt P0DMS8)
# T1 sequence (P0DMS8 whole entry): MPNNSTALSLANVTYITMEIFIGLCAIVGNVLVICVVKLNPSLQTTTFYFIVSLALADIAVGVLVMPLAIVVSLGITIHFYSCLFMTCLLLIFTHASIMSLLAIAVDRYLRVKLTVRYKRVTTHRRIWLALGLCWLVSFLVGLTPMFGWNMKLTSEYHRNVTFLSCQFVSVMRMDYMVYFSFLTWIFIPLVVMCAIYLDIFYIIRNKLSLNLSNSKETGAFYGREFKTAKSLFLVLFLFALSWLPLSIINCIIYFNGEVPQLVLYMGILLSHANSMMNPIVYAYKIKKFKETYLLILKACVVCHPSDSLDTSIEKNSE
# [2] = biological target: T2, Alpha-1A adrenergic receptor (Homo sapiens, UniProt P35348); type: functional, cell-based
# T2 sequence (P35348 whole entry): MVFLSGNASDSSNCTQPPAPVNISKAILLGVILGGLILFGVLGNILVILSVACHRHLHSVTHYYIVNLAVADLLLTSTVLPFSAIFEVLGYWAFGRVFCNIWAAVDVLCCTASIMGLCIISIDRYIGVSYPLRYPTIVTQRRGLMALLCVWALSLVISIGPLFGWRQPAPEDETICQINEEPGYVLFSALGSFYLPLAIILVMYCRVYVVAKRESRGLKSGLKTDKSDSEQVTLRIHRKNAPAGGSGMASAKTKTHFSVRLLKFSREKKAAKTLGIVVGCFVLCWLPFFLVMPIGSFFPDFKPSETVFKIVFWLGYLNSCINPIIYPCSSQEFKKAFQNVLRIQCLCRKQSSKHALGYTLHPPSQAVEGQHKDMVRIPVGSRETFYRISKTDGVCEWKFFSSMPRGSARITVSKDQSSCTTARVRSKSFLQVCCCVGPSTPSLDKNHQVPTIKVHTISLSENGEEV
# [3] = biological target: T3, Alpha-2A adrenergic receptor (Homo sapiens, UniProt P08913); type: functional, cell-based
# T3 sequence (P08913 whole entry): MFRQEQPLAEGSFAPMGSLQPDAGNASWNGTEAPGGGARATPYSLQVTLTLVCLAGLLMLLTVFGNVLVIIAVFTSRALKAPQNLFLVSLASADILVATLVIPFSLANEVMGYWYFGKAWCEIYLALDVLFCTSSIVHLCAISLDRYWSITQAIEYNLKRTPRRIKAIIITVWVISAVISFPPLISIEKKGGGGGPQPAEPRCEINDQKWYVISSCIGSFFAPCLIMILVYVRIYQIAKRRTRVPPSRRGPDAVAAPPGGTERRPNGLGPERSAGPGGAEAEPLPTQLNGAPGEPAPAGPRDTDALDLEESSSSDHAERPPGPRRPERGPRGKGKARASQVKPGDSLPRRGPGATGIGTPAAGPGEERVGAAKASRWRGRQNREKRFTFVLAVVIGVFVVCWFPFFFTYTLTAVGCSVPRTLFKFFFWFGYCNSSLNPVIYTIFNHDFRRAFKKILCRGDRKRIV
# [4] = biological target: T4, Type-1 angiotensin II receptor (Homo sapiens, UniProt P30556)
# T4 sequence (P30556 whole entry): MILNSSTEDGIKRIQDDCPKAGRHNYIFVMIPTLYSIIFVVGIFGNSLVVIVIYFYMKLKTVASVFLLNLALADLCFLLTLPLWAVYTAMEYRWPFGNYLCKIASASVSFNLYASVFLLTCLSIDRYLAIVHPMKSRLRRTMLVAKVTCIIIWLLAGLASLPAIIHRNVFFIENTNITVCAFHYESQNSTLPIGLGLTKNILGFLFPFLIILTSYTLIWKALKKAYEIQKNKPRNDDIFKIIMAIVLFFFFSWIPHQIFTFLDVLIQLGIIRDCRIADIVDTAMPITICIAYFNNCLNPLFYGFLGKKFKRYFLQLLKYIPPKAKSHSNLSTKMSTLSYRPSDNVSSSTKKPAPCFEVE
# [5] = biological target: T5, Cholecystokinin receptor type A (Homo sapiens, UniProt P32238)
# T5 sequence (P32238 whole entry): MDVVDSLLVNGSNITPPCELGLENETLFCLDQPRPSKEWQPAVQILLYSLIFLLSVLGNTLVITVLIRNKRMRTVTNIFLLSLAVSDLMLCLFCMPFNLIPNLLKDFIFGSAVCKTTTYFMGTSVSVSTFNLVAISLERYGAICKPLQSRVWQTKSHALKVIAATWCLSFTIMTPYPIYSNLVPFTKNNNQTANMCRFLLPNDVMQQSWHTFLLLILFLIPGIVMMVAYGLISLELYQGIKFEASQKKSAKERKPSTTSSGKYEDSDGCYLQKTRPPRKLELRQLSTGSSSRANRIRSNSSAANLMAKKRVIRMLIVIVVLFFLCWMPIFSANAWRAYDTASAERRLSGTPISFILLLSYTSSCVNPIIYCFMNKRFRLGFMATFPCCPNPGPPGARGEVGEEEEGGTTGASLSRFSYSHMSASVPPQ
# [6] = biological target: T6, Gastrin/cholecystokinin type B receptor (Homo sapiens, UniProt P32239)
# T6 sequence (P32239 whole entry): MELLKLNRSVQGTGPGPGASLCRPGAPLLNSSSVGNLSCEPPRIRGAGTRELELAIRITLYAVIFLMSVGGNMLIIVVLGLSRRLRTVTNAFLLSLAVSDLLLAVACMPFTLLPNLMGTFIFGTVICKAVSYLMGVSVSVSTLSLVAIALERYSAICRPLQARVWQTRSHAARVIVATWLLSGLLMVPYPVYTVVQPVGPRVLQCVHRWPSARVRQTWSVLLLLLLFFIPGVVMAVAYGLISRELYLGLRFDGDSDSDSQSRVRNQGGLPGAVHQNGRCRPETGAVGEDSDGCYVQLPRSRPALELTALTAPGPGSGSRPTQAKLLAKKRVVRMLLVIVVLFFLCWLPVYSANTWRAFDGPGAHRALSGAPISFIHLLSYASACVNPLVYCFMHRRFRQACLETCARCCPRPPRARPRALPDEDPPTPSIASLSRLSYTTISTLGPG
# [7] = biological target: Growth hormone secretagogue receptor type 1 (Homo sapiens, UniProt Q92847)
# [8] = biological target: 5-hydroxytryptamine receptor 2B (Homo sapiens, UniProt P41595); type: functional, cell-based
# [9] = biological target: Mu-type opioid receptor (Homo sapiens, UniProt P35372); assay: biochemical; type: functional
# Further: assay procedure not described here.
# Mu-type opioid receptor, sequence (P35372 whole entry): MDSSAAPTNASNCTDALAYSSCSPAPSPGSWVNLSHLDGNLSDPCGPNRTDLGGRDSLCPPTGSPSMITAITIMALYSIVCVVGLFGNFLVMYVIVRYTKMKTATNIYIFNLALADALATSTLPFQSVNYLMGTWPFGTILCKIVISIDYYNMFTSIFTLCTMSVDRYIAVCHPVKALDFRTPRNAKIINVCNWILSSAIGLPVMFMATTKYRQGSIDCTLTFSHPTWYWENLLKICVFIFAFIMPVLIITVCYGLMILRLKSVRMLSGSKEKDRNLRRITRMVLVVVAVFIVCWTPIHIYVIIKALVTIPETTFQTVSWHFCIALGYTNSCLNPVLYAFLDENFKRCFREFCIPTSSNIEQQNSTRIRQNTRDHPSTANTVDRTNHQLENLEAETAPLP
# Growth hormone secretagogue receptor type 1, sequence (Q92847 whole entry): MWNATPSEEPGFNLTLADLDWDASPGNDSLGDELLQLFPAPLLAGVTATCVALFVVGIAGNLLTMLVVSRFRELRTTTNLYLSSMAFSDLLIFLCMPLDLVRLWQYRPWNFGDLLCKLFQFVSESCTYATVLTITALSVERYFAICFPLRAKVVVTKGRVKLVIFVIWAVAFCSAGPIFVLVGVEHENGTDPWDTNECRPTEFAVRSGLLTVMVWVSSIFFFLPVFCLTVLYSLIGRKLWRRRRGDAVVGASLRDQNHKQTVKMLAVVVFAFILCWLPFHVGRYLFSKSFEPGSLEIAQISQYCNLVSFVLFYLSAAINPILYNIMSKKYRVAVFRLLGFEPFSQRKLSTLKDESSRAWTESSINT
# 5-hydroxytryptamine receptor 2B, sequence (P41595 whole entry): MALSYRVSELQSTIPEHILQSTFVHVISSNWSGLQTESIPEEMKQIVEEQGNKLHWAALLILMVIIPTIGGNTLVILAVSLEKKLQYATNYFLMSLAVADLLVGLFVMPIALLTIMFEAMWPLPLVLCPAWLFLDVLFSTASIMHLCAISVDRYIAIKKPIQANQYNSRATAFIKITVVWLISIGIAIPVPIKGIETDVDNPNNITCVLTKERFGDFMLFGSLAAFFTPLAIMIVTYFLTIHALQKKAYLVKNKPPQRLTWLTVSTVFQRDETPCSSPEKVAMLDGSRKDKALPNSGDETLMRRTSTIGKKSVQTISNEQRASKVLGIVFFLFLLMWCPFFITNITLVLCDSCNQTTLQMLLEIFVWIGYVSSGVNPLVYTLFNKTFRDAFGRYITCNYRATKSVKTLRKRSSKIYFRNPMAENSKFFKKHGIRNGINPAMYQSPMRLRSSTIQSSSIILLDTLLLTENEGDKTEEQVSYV
Structure (SMILES),AC50 [1],AC50 [2],AC50 [3],AC50 [4],AC50 [5],AC50 [6],AC50 [7],AC50 [8],AC50 [9]
CCOC(=O)O[C@]1(C(=O)OCCl)CC[C@H]2[C@@H]3CCC4=CC(=O)C=C[C@]4(C)[C@H]3[C@@H](O)C[C@@]21C [LOTEPREDNOL ETABONATE],> 30 µM,> 30 µM,> 30 µM,> 30 µM,> 30 µM,> 30 µM,> 30 µM,> 30 µM,> 30 µM
CCN(CC)CCNC(=O)c1cc(S(C)(=O)=O)ccc1OC [TIAPRIDE],> 30 µM,> 30 µM,> 30 µM,> 30 µM,> 30 µM,> 30 µM,> 30 µM,29 µM,> 30 µM
CC(=O)O[C@H](CC(=O)[O-])C[N+](C)(C)C [ACETYLCARNITINE],> 30 µM,> 30 µM,> 30 µM,> 30 µM,> 30 µM,> 30 µM,> 30 µM,> 30 µM,> 30 µM
CCCCCCCCCCCCCCCCCCCCCC(=O)Nc1ccn([C@@H]2O[C@H](CO)[C@@H](O)[C@@H]2O)c(=O)n1 [ENOCITABINE],> 30 µM,> 30 µM,> 30 µM,> 30 µM,> 30 µM,> 30 µM,> 30 µM,> 30 µM,> 30 µM
O=C(O)c1ccccc1Nc1cc(Cl)ccc1C(=O)O [LOBENZARIT],> 30 µM,> 30 µM,> 30 µM,> 30 µM,> 30 µM,> 10 µM,> 30 µM,> 30 µM,> 30 µM
CCC(COC(=O)c1cc(OC)c(OC)c(OC)c1)(c1ccccc1)N(C)C (centres undefined) [TRIMEBUTINE],30 µM,> 30 µM,> 30 µM,> 30 µM,> 30 µM,> 30 µM,> 30 µM,> 30 µM,0.2 µM
C=C1/C(=C\C=C2/CCC[C@]3(C)[C@@H]([C@H](C)/C=C/[C@@H](O)C4CC4)CC[C@@H]23)C[C@@H](O)C[C@@H]1O [CALCIPOTRIENE],12 µM,> 30 µM,> 30 µM,> 30 µM,> 30 µM,> 30 µM,> 30 µM,> 30 µM,> 30 µM
O=C(O)CCNC(=O)c1ccccc1 [BETAMIPRON],> 30 µM,> 30 µM,> 30 µM,> 30 µM,> 30 µM,> 30 µM,> 30 µM,> 30 µM,> 30 µM
C=C[C@@]1(C)CC(=O)[C@]2(O)[C@@]3(C)[C@@H](O)CCC(C)(C)[C@@H]3[C@H](O)[C@H](OC(C)=O)[C@@]2(C)O1 [COLFORSIN],> 30 µM,> 30 µM,4.3 µM,> 30 µM,> 30 µM,> 30 µM,> 30 µM,> 30 µM,> 30 µM
C#CCOc1ccc(N)cc1C(=O)NCCCC [PARSALMIDE],> 30 µM,,> 30 µM,> 30 µM,> 30 µM,> 30 µM,> 30 µM,> 30 µM,> 30 µM
COc1ccc(-c2noc(CC(=O)O)c2-c2ccc(OC)cc2)cc1 [MOFEZOLAC],> 30 µM,> 30 µM,> 30 µM,> 30 µM,> 30 µM,> 10 µM,> 30 µM,> 30 µM,> 30 µM
NC(=O)CN1CCCC1=O,> 30 µM,> 30 µM,> 30 µM,> 30 µM,> 30 µM,> 30 µM,> 30 µM,> 30 µM,> 30 µM
CCN(CC)C(=O)Nc1ccc(OCC(O)CNC(C)(C)C)c(C(C)=O)c1 (centres undefined) [CELIPROLOL],> 30 µM,> 30 µM,> 30 µM,> 30 µM,> 30 µM,> 30 µM,> 30 µM,> 30 µM,> 30 µM
CCN1CCCC1CNC(=O)c1cc(S(=O)(=O)CC)c(N)cc1OC (centres undefined) [AMISULPRIDE],> 30 µM,> 30 µM,13 µM,> 30 µM,,> 30 µM,> 30 µM,,> 30 µM
C[N@+]1(CCF)[C@@H]2CC[C@H]1C[C@@H](OC(=O)C(O)(c1ccccc1)c1ccccc1)C2,> 30 µM,> 30 µM,> 30 µM,> 30 µM,> 30 µM,> 30 µM,> 30 µM,> 30 µM,> 30 µM
CC(=O)SC[C@@H](C)C(=O)N1CCC[C@H]1C(=O)N[C@@H](Cc1ccccc1)C(=O)O,> 30 µM,> 30 µM,> 30 µM,> 30 µM,> 30 µM,> 30 µM,> 30 µM,> 30 µM,> 30 µM
COc1ccc2nc3cc(Cl)ccc3c(Nc3cc(CN4CCCC4)c(O)c(CN4CCCC4)c3)c2n1 [PYRONARIDINE],15 µM,> 30 µM,> 30 µM,> 30 µM,> 30 µM,> 30 µM,26 µM,> 30 µM,> 30 µM
NC1CCN(c2nc3c(cc2F)c(=O)c(C(=O)O)cn3-c2ccc(F)cc2F)C1 (centres undefined) [TOSUFLOXACIN],> 30 µM,> 30 µM,> 30 µM,> 30 µM,> 30 µM,> 30 µM,> 30 µM,> 30 µM,> 30 µM
